Laboratory results from patent US4837224A, “(R)-alpha-ethyl-2-oxo-1-pyrrolidineacetamide compositions” (UCB Societe Anonyme, priority 1984, dated 1989).

What was measured:
[1] = Toxicity: LD 50 after intravenous administration in the male rat; details: in vivo
Excerpt: (§1) The following table gives, for compounds A and B, the LD 50 in mg/kg determined on the male mouse and the male rat after intravenous administration

[2] = test system: amnesia-inducing effect of an electric shock; test: Mnemic activity: antagonism of the amnesia-inducing effect of an electric shock; type: in vivo, rat (female Wistar); details: for minimal effective dose: sc, rat, subcutaneous, 5 minutes after the end of the learning session, retention measured 24 hours after the learning session, read-out: Active dose (minimum active dose reestablishing a normal threshold of between 8 to 11 graduations); for mnemic activity relative to the racemate: times more active than the racemate (compound A)
Excerpt: The principle of the test is as follows:
The reaction of withdrawal of a rat's paw when subjected to an increasing and measured pressure is observed. The pressure at which the withdrawal reaction takes place is referred to as the "reaction threshold". This threshold is expressed by the number of graduations read diectly from the scale of the apparatus used (analgesia-meter UGO BASILE Milan) and thus corresponds to the minimum pressure which, applied to the paw of the animals, causes the paw to be withdrawn (learning session). Three measurements are carried out at intervals of 30 minutes.
When tested 24 hours after the end of the learning session, control animal show a natural retention of the previous test, which corresponds to a threshold of the order of 8 to 11 graduations.
The amnesia-inducing effect is produced by applying a trans-temporal supramaximal electric shock (100 mA, 120 Volts, 0.2 sec.) to the rats 15 minute after the end of the learning session. This amnesia-inducing effect due to the electric shock induces, when measuring the retention 24 hours later, an increase of the avoidance threshold which now corresponds to that of naive animals (which have not undergone a learning session), that is to say a threshold of between 14 and 19 graduations.
For each compound to be tested the minimum active dose (in mg/kg) reestablishing a normal threshold of between 8 to 11 graduations 24 hours after the learning session in animals subjected to electric shock is determined.
The compounds to be tested are administered subcutaneously, as a 10% solution or suspension, to groups of 10 rats (female Wistar rats weighing 150 g) 5 minutes after the end of the learning session. At the same time, a control group of 10 rats is given only a 0.9% aqueous sodium chloride solution.

[3] = Toxicity: LD 50 after intravenous administration in the male mouse; type: in vivo; details: in vivo; male mouse, intravenous
Excerpt: as §1

[4] = test system: male mouse; test: as above; type: in vivo
Excerpt: as §1

| SMILES | LD50 [1] | minimal effective dose [2] | mnemic activity relative to the racemate [2] | mnemic activity relative to the racemate ([2]; listed as dextrorotatory enantiomer of alpha-ethyl-2-oxo-1-pyrrolidineacetamide) | LD50 [3] | toxicity relative to the racemate ([4]; times lower toxicity than the racemic form, based on LD 50 in mouse and rat) | toxicity relative to the racemate (in words) ([4]; versus racemate (product A), LD 50 mouse and rat, intravenous) |
| --- | --- | --- | --- | --- | --- | --- | --- |
| CC[C@H](C(N)=O)N1CCCC1=O [compound B, (R)-alpha-ethyl-2-oxo-1-pyrrolidineacetamide] | 5000 mg/kg | 0.17 mg/kg | 10 times | about 10 times | 5600 mg/kg | 3 times | three times less toxic |
| CCC(C(N)=O)N1CCCC1=O (racemic) [compound A, alpha-ethyl-2-oxo-1-pyrrolidineacetamide] | – | 1.7 mg/kg | – | – | – | – | – |
